Here are results for 19 compounds from US20240208912A1 (Mirati Therapeutics, Inc., priority 2021, published 2024).

Structures can show the parent of a compound that is named as a salt. Where two headings read alike, the source gives them in different places.

For assay [1], the system named is PRMT5-dependent Symmetric Di-methyl Arginine signal in HCT116 homozygous MTAP Knockout cells. The assay can be described thus: SYM11 In-Cell Western in HCT116 homozygous MTAP knockout cells. The class given is cell-based. Particulars: Homo sapiens, HCT-116, 96 h, 4 days of treatment, SYM11/DRAQ5 ratio as percent of DMSO control, read-out: In-cell-Western (SYM11) IC50 (nM) HCT116 MTAP_KO. On the procedure: HCT116 cells were genetically engineered to knock out the function of both MTAP alleles using a CRISPR/Cas9 system and an sgRNA targeting the MTAP gene. Following Cas9/MTAP sgRNA transduction, clones were screened to confirm that each allele of the MTAP gene had been inactivated (i.e., homozygous MTAP knock out) creating an MTAP-deficient cell.
Control samples were analyzed in parallel.
Briefly, on Day 0, 2,000 HCT116 parental or HCT116 homozygous MTAP knockout cells were seeded in 96 well plates in McCoy's 5A supplemented with 10% fetal bovine serum and pen/strep and the cells were incubated overnight at 37° C. plus 5% CO2. The following day, cells were treated with DMSO vehicle control or a dose response of PRMT5 inhibitors, and incubated at 37° C. plus 5% CO^2 for four days.
After 4 days of treatment, the cells were fixed by adding 50 μl of 4% paraformaldehyde solution to each well and the cells were incubated for 20 min at room temperature. The paraformaldehyde solution was removed, 150 μl of ice-cold methanol was added and the plate was placed −20° C. for 10 minutes. The methanol was removed, 150 μl of Odyssey Blocking buffer+0.05% Tween20 was added and the plate was incubated at room temperature with shaking for one hour.
The primary SYM11 antibody solution was removed by aspiration and the wells were washed three consecutive times with phosphate buffered saline containing 0.1% Tween-20 (PBST).
The secondary antibody solution was removed by aspiration and the wells were washed three consecutive times with PBST.
The SYM11 signal and the DRAQ5 signal were quantified using a Li-Cor Odyssey machine reading at […], respectively. The SYM11/DRAQ5 ratio was used to calculate the inhibition of Symmetric Dimethyl Arginine as percent of DMSO control.

Another assay has as its target T1, PRMT5/MEP50 complex (Homo sapiens, UniProt O14744).
T1 construct: purchased Reaction Biology Corporation
The assay can be described thus: PRMT5:MEP50 HotSpot Assay (full-length histone H2A substrate, plus and minus MTA). The class given is biochemical. Conditions: IC50 + 2 μM MTA, in the presence of 2 μM MTA. The method in brief: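 Radiometric HotSpot format using recombinant full-length histone H2A as substrate, run with and without MTA. Reactions were stopped and spotted onto filter paper. Tritiated H2A was quantified by scintillation counting.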

The subject of assay [2] is HCT116 homozygous MTAP knockout cells. Nature of the assay: Proliferation assay (CellTiter-Glo, 10 days) in HCT116 homozygous MTAP knockout cells. The class given is cell-based. Conditions: CellTiter-Glo after 10 days of treatment, read-out: Proliferation IC50 (nM) HCT116 MTAP_KO. The method in brief:
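MTAP-null HCT116 clone made by CRISPR/Cas9 knockout of both alleles, tested beside parental cells. Cells dosed the day after seeding, split 1:10 on day 6 into fresh medium with the same compound level, and read on day 11 by CellTiter-Glo. IC50 taken after 10 days of exposure.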

T1 sequence (O14744 2-637 limits assumed): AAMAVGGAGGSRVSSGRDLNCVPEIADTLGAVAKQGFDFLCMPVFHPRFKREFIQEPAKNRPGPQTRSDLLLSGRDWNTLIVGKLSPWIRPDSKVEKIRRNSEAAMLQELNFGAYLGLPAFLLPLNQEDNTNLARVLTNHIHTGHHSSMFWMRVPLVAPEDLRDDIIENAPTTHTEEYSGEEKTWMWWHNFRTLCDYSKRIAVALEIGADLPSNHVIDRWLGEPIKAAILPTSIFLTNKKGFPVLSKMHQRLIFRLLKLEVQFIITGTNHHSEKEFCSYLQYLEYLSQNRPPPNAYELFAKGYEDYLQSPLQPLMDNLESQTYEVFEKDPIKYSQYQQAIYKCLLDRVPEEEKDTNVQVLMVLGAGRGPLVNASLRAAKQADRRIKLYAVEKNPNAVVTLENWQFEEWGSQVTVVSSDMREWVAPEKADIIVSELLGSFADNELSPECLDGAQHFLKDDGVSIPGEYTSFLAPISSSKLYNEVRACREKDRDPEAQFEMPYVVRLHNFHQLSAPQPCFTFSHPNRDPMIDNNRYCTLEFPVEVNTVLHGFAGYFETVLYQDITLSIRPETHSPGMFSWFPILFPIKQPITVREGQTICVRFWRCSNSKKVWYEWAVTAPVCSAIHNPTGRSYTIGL
T1 sequence (Q9BQA1 2-342 partner limits assumed): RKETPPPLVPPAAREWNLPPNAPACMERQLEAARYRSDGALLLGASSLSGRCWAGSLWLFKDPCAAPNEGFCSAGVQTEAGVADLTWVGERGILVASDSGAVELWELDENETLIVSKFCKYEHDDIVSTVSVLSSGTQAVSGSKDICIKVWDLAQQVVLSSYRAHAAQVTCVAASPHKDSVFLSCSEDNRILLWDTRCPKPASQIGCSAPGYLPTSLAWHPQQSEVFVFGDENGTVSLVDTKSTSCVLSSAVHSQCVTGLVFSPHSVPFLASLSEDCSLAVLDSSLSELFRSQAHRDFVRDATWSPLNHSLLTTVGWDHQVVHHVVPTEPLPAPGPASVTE

`Cn1ncc(-c2ccc3c(=O)[nH]nc(CN)c3c2)c1-c1cc2ccccn2c1C#N` [Example 4-256, 2-[4-[4-(aminomethyl)-1-oxo-2H-phthalazin-6-yl]-2-methyl-pyrazol-3-yl]indolizine-3-carbonitrile]: in assay [1], the IC50 is 1000 nM. `Cn1ncc(-c2ccc3c(=O)[nH]nc(CN)c3c2)c1-c1c(F)cc2c(c1C#N)OCCC2` (atropisomer, axis not shown; (M)) [Example 16-38, (M)-7-[4-[4-(aminomethyl)-1-oxo-2H-phthalazin-6-yl]-2-methyl-pyrazol-3-yl]-6-fluoro-chromane-8-carbonitrile]: the IC50 at PRMT5/MEP50 complex is 83.8 nM; in assay [2] it was 39 nM.

On to `Cc1c(F)c(-c2c(-c3cc(C)c4c(=O)[nH]nc(CN)c4c3)cnn2C)c(C#N)c2ncc(Cl)cc12` (single isomer, unassigned) [Example 16-95, (P)-7-(4-(4-(aminomethyl)-8-methyl-1-oxo-1,2-dihydrophthalazin-6-yl)-1-methyl-1H-pyrazol-5-yl)-3-chloro-6-fluoro-5-methylquinoline-8-carbonitrile], for which the IC50 at PRMT5/MEP50 complex amounted to 800 nM; in assay [2] (Homo sapiens, HCT-116, 240 h), 1230 nM. With `Cn1ncc(-c2ccc3c(=O)[nH]nc(CN)c3c2)c1-c1c(F)c(Cl)c2c(c1C#N)OCCC2` (single isomer, unassigned) [Example 16-39, (P)-7-(4-(4-(aminomethyl)-1-oxo-1,2-dihydrophthalazin-6-yl)-1-methyl-1H-pyrazol-5-yl)-5-chloro-6-fluorochroman-8-carbonitrile], the IC50 at PRMT5/MEP50 complex came to 366 nM; in assay [2] it was 517 nM. For `C[C@@H]1C[C@H]1Oc1ccc(F)c(-c2c(-c3ccc4c(=O)[nH]nc(CN)c4c3)cnn2C)c1C#N` (atropisomer, axis not shown; (P)) [Example 16-65, (P)-2-(4-(4-(aminomethyl)-1-oxo-1,2-dihydrophthalazin-6-yl)-1-methyl-1H-pyrazol-5-yl)-3-fluoro-6-((1R,2R)-2-methylcyclopropoxy)benzonitrile], in that order: 204 nM and 187 nM. The matching figures for `C[C@H]1C[C@@H]1Oc1ccc(F)c(-c2c(-c3ccc4c(=O)[nH]nc(CN)c4c3)cnn2C)c1C#N` (single isomer, unassigned) [Example 16-68]: 52.4 nM and 41 nM. For `CC(C)n1ncc(-c2ccc3c(=O)[nH]nc(CN)c3c2)c1-c1sc2ccccc2c1C#N` [Example 19-2, 2-(4-(4-(aminomethyl)-1-oxo-1,2-dihydrophthalazin-6-yl)-1-isopropyl-1H-pyrazol-5-yl)benzo[b]thiophene-3-carbonitrile], the IC50 at PRMT5/MEP50 complex was 1650 nM; in assay [2] (Homo sapiens, HCT-116, 240 h), 4220 nM.

On to `Cc1cnc2sc(-c3c(-c4ccc5c(=O)[nH]nc(CN)c5c4)cnn3C)c(C#N)c2c1` [Example 12-19, 2-[4-[4-(aminomethyl)-1-oxo-2H-phthalazin-6-yl]-2-methyl-pyrazol-3-yl]-5-methyl-thieno[2,3-b]pyridine-3-carbonitrile hydrochloride], for which the IC50 on PRMT5/MEP50 complex was 212 nM; in assay [2] (Homo sapiens, HCT-116, 240 h), 136 nM. The matching figures for `Cc1sc(-c2c(-c3ccc4c(=O)[nH]nc(CN)c4c3)cnn2C)c(C#N)c1OC1CC1` [Example 4-276, 2-(4-(4-(aminomethyl)-1-oxo-1,2-dihydrophthalazin-6-yl)-1-methyl-1H-pyrazol-5-yl)-4-cyclopropoxy-5-methylthiophene-3-carbonitrile]: 222 nM and 198 nM. With `Cn1ncc(-c2ccc3c(=O)[nH]nc(CN)c3c2)c1-c1c(C#N)cc2ccccc2c1F` (single isomer, unassigned) [Example 16-53, (P)-3-[4-[4-(aminomethyl)-1-oxo-2H-phthalazin-6-yl]-2-methyl-pyrazol-3-yl]-4-fluoro-naphthalene-2-carbonitrile], the IC50 was 157 nM at PRMT5/MEP50 complex and 752 nM in assay [2].

With `Cn1ncc(-c2ccc3c(=O)[nH]nc(CN)c3c2)c1-c1sc2c(OCC(F)F)cccc2c1C#N` [Example 4-269, 2-(4-(4-(aminomethyl)-1-oxo-1,2-dihydrophthalazin-6-yl)-1-methyl-1H-pyrazol-5-yl)-7-(2,2-difluoroethoxy)benzo[b]thiophene-3-carbonitrile], the IC50 at PRMT5/MEP50 complex came out at 58.2 nM; in assay [2] (Homo sapiens, HCT-116, 240 h), 182 nM. As to `C[C@@H]1C[C@H]1Oc1ccc(F)c(-c2c(-c3ccc4c(=O)[nH]nc(CN)c4c3)cnn2C)c1C#N` (atropisomer, axis not shown; (M)) [Example 16-66, (M)-2-(4-(4-(aminomethyl)-1-oxo-1,2-dihydrophthalazin-6-yl)-1-methyl-1H-pyrazol-5-yl)-3-fluoro-6-((1R,2R)-2-methylcyclopropoxy)benzonitrile], the values for the IC50 (on PRMT5/MEP50 complex; in assay [2]) were 107 nM and 35 nM, respectively. The matching figures for `Cc1cnc2c(C#N)c(-c3c(-c4ccc5c(=O)[nH]nc(CN)c5c4)cnn3C)c(F)c(C)c2c1` (atropisomer, axis not shown; (M)) [Example 16-94, (M)-7-(4-(4-(aminomethyl)-1-oxo-1,2-dihydrophthalazin-6-yl)-1-methyl-1H-pyrazol-5-yl)-6-fluoro-3,5-dimethylquinoline-8-carbonitrile]: 1140 nM and 231 nM. The matching figures for `Cn1ncc(-c2cc(Cl)c3c(=O)[nH]nc(CN)c3c2)c1-c1c(F)c(Cl)c2ccccc2c1C#N` (single isomer, unassigned) [Example 16-58, (M)-2-[4-[4-(aminomethyl)-8-chloro-1-oxo-2H-phthalazin-6-yl]-2-methyl-pyrazol-3-yl]-4-chloro-3-fluoro-naphthalene-1-carbonitrile]: 4.61 nM and 15 nM.

In the case of `CCOc1cc(-c2cnn(C)c2-c2c(F)c(Cl)cc(OC3CC3)c2C#N)cc2c(CN)n[nH]c(=O)c12` (single isomer, unassigned) [Example 16-77, (P)-2-[4-[4-(aminomethyl)-8-ethoxy-1-oxo-2H-phthalazin-6-yl]-2-methyl-pyrazol-3-yl]-4-chloro-6-(cyclopropoxy)-3-fluoro-benzonitrile], the IC50 at PRMT5/MEP50 complex is 4100 nM; in assay [2] it was 264 nM. The matching figures for `CCOc1cc(-c2cnn(C)c2-c2c(F)c(Cl)c3ccccc3c2C#N)cc2c(CN)n[nH]c(=O)c12` (single isomer, unassigned) [Example 16-79, (P)-2-[4-[4-(aminomethyl)-8-ethoxy-1-oxo-2H-phthalazin-6-yl]-2-methyl-pyrazol-3-yl]-4-chloro-3-fluoro-naphthalene-1-carbonitrile]: 8.25 nM and 33 nM. For `Cc1c(F)c(-c2c(-c3cc(Cl)c4c(=O)[nH]nc(CN)c4c3)cnn2C)c(C#N)c2ccccc12` (single isomer, unassigned) [Example 16-59, (P)-2-[4-[4-(aminomethyl)-8-chloro-1-oxo-2H-phthalazin-6-yl]-2-methyl-pyrazol-3-yl]-3-fluoro-4-methyl-naphthalene-1-carbonitrile], the results for the IC50 (at PRMT5/MEP50 complex; in assay [2]) were 318 nM and 215 nM, respectively. For `CCOc1cc(-c2cnn(C)c2-c2c(F)c(C)c3ccccc3c2C#N)cc2c(CN)n[nH]c(=O)c12` (single isomer, unassigned) [Example 16-82, (M)-2-[4-[4-(aminomethyl)-8-ethoxy-1-oxo-2H-phthalazin-6-yl]-2-methyl-pyrazol-3-yl]-3-fluoro-4-methyl-naphthalene-1-carbonitrile], in that order: 1180 nM and 14 nM.

On to `Cn1ncc(-c2cc(Cl)c3c(=O)[nH]nc(CN)c3c2)c1-c1c(F)cc2ncc(Cl)cc2c1C#N` (single isomer, unassigned) [Example 16-62, (M)-6-[4-[4-(aminomethyl)-8-chloro-1-oxo-2H-phthalazin-6-yl]-2-methyl-pyrazol-3-yl]-3-chloro-7-fluoro-quinoline-5-carbonitrile], for which the figures for the IC50 (at PRMT5/MEP50 complex; in assay [2]) were 28.7 nM and 7 nM, respectively.
